Values of other authors, collected in US12427126B2, “Niclosamide formulations and methods of use” (Florida State University Research Foundation, Inc., priority 2020, dated 2025).

What was measured:
[1] = administered orally

## O=C(Nc1ccc([N+](=O)[O-])cc1Cl)c1cc(Cl)ccc1O [Niclosamide]
other
  solubility: low solubility
[1]
  systemic bioavailability: low systemic bioavailability
